Data as given in ChEMBL document CHEMBL1155467, “Semisynthesis and acetylcholinesterase inhibitory activity of stemofoline alkaloids and analogues” (J Nat Prod, 2010).
Values after ≈ are worked out from the molar mass of the structure shown.

Test: Inhibition of AChE assessed as minimum drug level causing white zone of enzyme inhibition by TLC bioautography

CCCCC12C3CC4C5[C@@H](C)[C@](O)([C@]6(O)OC(=O)C(C)=C6OC)O[C@]5(O3)C1CCN42 (some centres not stated)
MIC: 1.19 nM (≈ 0.501 ng/mL)

COC1=C(C)C(=O)O/C1=C1\O[C@@]23OC4CC(C2[C@H]1C)N1CCC3[C@]41/C=C/[C@@H](C)O (some centres not stated)
MIC: 1.25 nM (≈ 0.501 ng/mL)
